In PubChem BioAssay (NCI):
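Values below derive from 48-hour exposures of cells grown in 96-well plates, with endpoints linearly interpolated between the two concentrations bracketing the appropriate inhibition level. TGI: concentration producing complete growth inhibition.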

Key:
Test in all cases: growth of human tumour cells (NCI), 48 h
[1] = tested on: SW-620 colon
[2] = tested on: HT29 colon
[3] = tested on: KM12 colon
[4] = tested on: HCT-116 colon
[5] = tested on: SK-OV-3 ovarian
[6] = tested on: A549 NSCLC
[7] = tested on: HOP-92 NSCLC
[8] = tested on: 786-0 renal
[9] = tested on: CAKI-1 renal
[10] = tested on: DLD-1 colon
[11] = tested on: SK-MEL-5 melanoma
[12] = tested on: HCC-2998 colon
[13] = tested on: HOP-62 NSCLC
[14] = tested on: SNB-19 CNS
[15] = tested on: DMS 273 small cell lung
[16] = tested on: EKVX NSCLC
[17] = tested on: MALME-3M melanoma
[18] = tested on: SF-268 CNS
[19] = tested on: SNB-78 CNS
[20] = tested on: UO-31 renal
[21] = tested on: SF-295 CNS
[22] = tested on: SK-MEL-2 melanoma
[23] = tested on: UACC-62 melanoma
[24] = tested on: UACC-257 melanoma
[25] = tested on: K-562 leukemia
[26] = tested on: DMS 114 small cell lung
[27] = tested on: SN12C renal
[28] = tested on: CCRF-CEM leukemia
[29] = tested on: OVCAR-4 ovarian
[30] = tested on: U251 CNS
[31] = tested on: NCI-H23 lung
[32] = tested on: TK-10 renal
[33] = tested on: OVCAR-5 ovarian
[34] = tested on: M19-MEL melanoma
[35] = tested on: M14 melanoma
[36] = tested on: SNB-75 CNS
[37] = tested on: OVCAR-3 ovarian
[38] = tested on: KM20L2 colon
[39] = tested on: RXF 393 renal
[40] = tested on: A498 renal
[41] = tested on: HCT-15 colon
[42] = tested on: LOX IMVI melanoma
[43] = tested on: HOP-18 NSCLC
[44] = tested on: COLO 205 colon
[45] = tested on: SK-MEL-28 melanoma
[46] = tested on: OVCAR-8 ovarian
[47] = tested on: NCI-H522 lung
[48] = tested on: SF-539 CNS
[49] = tested on: IGROV1 ovarian
[50] = tested on: RXF-631 renal
[51] = tested on: NCI-H460 lung
[52] = tested on: LXFL 529 NSCLC
[53] = tested on: NCI-H226 lung
[54] = tested on: ACHN renal
[55] = tested on: HL-60(TB) leukemia
[56] = tested on: XF 498 CNS
[57] = tested on: SR leukemia
[58] = tested on: MOLT-4 leukemia
[59] = tested on: RPMI-8226 leukemia

Structure (SMILES): CC(=O)n1c(=O)c2cc3c(=O)n(-c4cccc(C#N)c4)c(=O)c3cc2c1=O
- TGI [1]: > 100 µM
- TGI [2]: > 100 µM
- TGI [3]: > 100 µM
- TGI [4]: > 100 µM
- TGI [5]: > 100 µM
- TGI [6]: > 100 µM
- TGI [7]: > 100 µM
- TGI [8]: > 100 µM
- TGI [9]: > 100 µM
- TGI [10]: > 100 µM
- TGI [11]: > 100 µM
- TGI [12]: > 100 µM
- TGI [13]: > 100 µM
- TGI [14]: > 100 µM
- TGI [15]: > 100 µM
- TGI [16]: > 100 µM
- TGI [17]: > 100 µM
- TGI [18]: > 100 µM
- TGI [19]: > 100 µM
- TGI [20]: > 100 µM
- TGI [21]: > 100 µM
- TGI [22]: > 100 µM
- TGI [23]: > 100 µM
- TGI [24]: > 100 µM
- TGI [25]: > 100 µM
- TGI [26]: > 100 µM
- TGI [27]: > 100 µM
- TGI [28]: > 100 µM
- TGI [29]: > 100 µM
- TGI [30]: > 100 µM
- TGI [31]: > 100 µM
- TGI [32]: > 100 µM
- TGI [33]: > 100 µM
- TGI [34]: > 100 µM
- TGI [35]: > 100 µM
- TGI [36]: 54.6 µM
- TGI [37]: > 100 µM
- TGI [38]: > 100 µM
- TGI [39]: > 100 µM
- TGI [40]: > 100 µM
- TGI [41]: > 100 µM
- TGI [42]: > 100 µM
- TGI [43]: > 100 µM
- TGI [44]: > 100 µM
- TGI [45]: > 100 µM
- TGI [46]: > 100 µM
- TGI [47]: > 100 µM
- TGI [48]: > 100 µM
- TGI [49]: > 100 µM
- TGI [50]: > 100 µM
- TGI [51]: > 100 µM
- TGI [52]: > 100 µM
- TGI [53]: > 100 µM
- TGI [54]: > 100 µM
- TGI [55]: > 100 µM

Structure (SMILES): Cc1ccccc1/C=C/C(=O)c1ccccc1
- TGI [1]: > 10 µM
- TGI [2]: 47.7 µM
- TGI [3]: 48.6 µM
- TGI [4]: 31 µM
- TGI [5]: 67.3 µM
- TGI [6]: 65.1 µM
- TGI [7]: 37.6 µM
- TGI [8]: 29.9 µM
- TGI [9]: 37.2 µM
- TGI [10]: 54.9 µM
- TGI [11]: > 10 µM
- TGI [12]: 34.5 µM
- TGI [13]: 30.8 µM
- TGI [14]: 30.3 µM
- TGI [15]: 61.2 µM
- TGI [16]: 33.7 µM
- TGI [17]: 35 µM
- TGI [18]: 30 µM
- TGI [19]: 39.2 µM
- TGI [20]: 36.2 µM
- TGI [56]: 30.8 µM
- TGI [22]: > 10 µM
- TGI [23]: 38 µM
- TGI [24]: 42.4 µM
- TGI [25]: 49.7 µM
- TGI [26]: 48 µM
- TGI [27]: > 10 µM
- TGI [28]: 69.3 µM
- TGI [29]: 33.2 µM
- TGI [30]: 30.5 µM
- TGI [31]: 32.2 µM
- TGI [57]: > 100 µM
- TGI [33]: 30.9 µM
- TGI [34]: 61 µM
- TGI [35]: 29.6 µM
- TGI [36]: 34.6 µM
- TGI [37]: 31 µM
- TGI [38]: 33.6 µM
- TGI [40]: 30.2 µM
- TGI [58]: 60.7 µM
- TGI [41]: > 10 µM
- TGI [59]: 71.4 µM
- TGI [44]: 46.7 µM
- TGI [45]: 33.9 µM
- TGI [46]: 63.9 µM
- TGI [47]: 46.8 µM
- TGI [48]: 28.7 µM
- TGI [49]: 62.1 µM
- TGI [50]: 42.5 µM
- TGI [51]: 38.7 µM
- TGI [52]: 38.6 µM
- TGI [53]: 36.7 µM
- TGI [54]: 32.8 µM

Structure (SMILES): O=C(NN1C(=O)CSC1c1cccc(F)c1)c1ccncc1 (configuration not stated)
- TGI [1]: > 100 µM
- TGI [2]: > 100 µM
- TGI [3]: > 100 µM
- TGI [5]: > 100 µM
- TGI [6]: > 100 µM
- TGI [9]: > 100 µM
- TGI [11]: > 100 µM
- TGI [12]: > 100 µM
- TGI [14]: > 100 µM
- TGI [15]: > 100 µM
- TGI [16]: > 100 µM
- TGI [17]: > 100 µM
- TGI [18]: > 100 µM
- TGI [19]: > 100 µM
- TGI [20]: > 100 µM
- TGI [56]: > 100 µM
- TGI [21]: > 100 µM
- TGI [22]: > 100 µM
- TGI [23]: > 100 µM
- TGI [24]: > 100 µM
- TGI [25]: > 100 µM
- TGI [26]: > 100 µM
- TGI [27]: > 100 µM
- TGI [28]: > 100 µM
- TGI [29]: > 100 µM
- TGI [30]: > 100 µM
- TGI [31]: > 100 µM
- TGI [32]: > 100 µM
- TGI [33]: > 100 µM
- TGI [35]: > 100 µM
- TGI [36]: > 100 µM
- TGI [38]: > 100 µM
- TGI [39]: > 100 µM
- TGI [40]: > 100 µM
- TGI [58]: > 100 µM
- TGI [41]: > 100 µM
- TGI [42]: > 100 µM
- TGI [59]: > 100 µM
- TGI [44]: > 100 µM
- TGI [45]: > 100 µM
- TGI [46]: > 100 µM
- TGI [47]: > 100 µM
- TGI [48]: > 100 µM
- TGI [49]: > 100 µM
- TGI [50]: > 100 µM
- TGI [52]: > 100 µM
- TGI [54]: > 100 µM
- TGI [55]: > 100 µM

Structure (SMILES): O=C1[C@H]2ON(c3ccccc3)C(c3ccco3)[C@H]2C(=O)N1c1ccc(Cc2ccc(N3C(=O)[C@@H]4ON(c5ccccc5)C(c5ccco5)[C@@H]4C3=O)cc2)cc1 (some centres not stated)
- TGI [1]: > 100 µM
- TGI [2]: > 100 µM
- TGI [3]: > 100 µM
- TGI [5]: > 100 µM
- TGI [6]: > 100 µM
- TGI [7]: > 100 µM
- TGI [8]: > 100 µM
- TGI [9]: > 100 µM
- TGI [10]: > 100 µM
- TGI [11]: > 100 µM
- TGI [12]: > 100 µM
- TGI [13]: > 100 µM
- TGI [15]: > 100 µM
- TGI [17]: > 100 µM
- TGI [18]: > 100 µM
- TGI [19]: > 100 µM
- TGI [20]: > 100 µM
- TGI [56]: > 100 µM
- TGI [21]: > 100 µM
- TGI [22]: > 100 µM
- TGI [23]: > 100 µM
- TGI [24]: > 100 µM
- TGI [25]: > 100 µM
- TGI [26]: > 100 µM
- TGI [27]: > 100 µM
- TGI [28]: > 100 µM
- TGI [29]: > 100 µM
- TGI [30]: > 100 µM
- TGI [31]: > 100 µM
- TGI [33]: > 100 µM
- TGI [34]: > 100 µM
- TGI [35]: > 100 µM
- TGI [36]: > 100 µM
- TGI [37]: > 100 µM
- TGI [38]: > 100 µM
- TGI [39]: > 100 µM
- TGI [40]: > 100 µM
- TGI [58]: > 100 µM
- TGI [41]: > 100 µM
- TGI [42]: > 100 µM
- TGI [59]: > 100 µM
- TGI [43]: > 100 µM
- TGI [44]: > 100 µM
- TGI [45]: > 100 µM
- TGI [48]: > 100 µM
- TGI [49]: > 100 µM
- TGI [51]: > 100 µM
- TGI [52]: > 100 µM
- TGI [53]: > 100 µM
- TGI [54]: > 100 µM
- TGI [55]: > 100 µM
